Key:
Type in all cases: in vivo, human
[1] = Drug interaction: effect of co-administered medication on vibegron PK
Description: However, these interactions are not expected to be clinically significant.

[2] = Effect of food on oral absorption; conditions: for mean AUC0-24 with food compared to fasted state / mean Cmax with food compared to fasted state: 150 mg multiple doses, middle-aged and elderly females
healthy subjects = experiment: Maximum MA4 heart rate in multiple-dose Phase 1 study; conditions: Day 14
Description: More intensive assessments of heart rate and blood pressure were performed in healthy volunteers in several Phase 1 studies. […] Doses ranged from 25 to 400 mg once daily for 7 to 28 days depending on the cohort. Least squares mean and 90% confidence intervals of maximum change from baseline in moving average of heart rate over 4 hours postdose (MA4 HR) are presented in Table 17.

[3] = Multiple rising dose Phase 1 pharmacokinetics; conditions: for AUC0-24 / Cmax / t1/2 (harmonic mean ± pseudo SD) / Ctrough: after 14 days
Description: The steady state AUC geometric mean accumulation ratios were ˜2 in young male subjects and ˜2.8 in elderly subjects (male and female).
Although exposures were similar in middle-aged males when compared to young males, plasma concentrations were higher in elderly compared to middle-aged and young subjects. […] Furthermore, the steady state AUC geometric mean accumulation ratios were ˜2 in young males and ˜2.8 in the elderly.

[4] = vibegron 100 mg single dose with multiple doses of 240 mg or 180 mg diltiazem
[5] = 50 mg with high-fat meal, non-Japanese young males
[6] = 50 mg with standard Japanese breakfast, Japanese young males
[7] = 150 mg multiple doses with food, middle-aged females, Day 14
[8] = multiple dose 150 mg, day 14, non-Japanese middle-aged females, fasted
[9] = elderly female subjects, 100 mg
[10] = multiple dose 25 mg, healthy young males
[11] = multiple dose 50 mg, Japanese healthy young males
[12] = multiple dose 50 mg, healthy young males
[13] = multiple dose 100 mg, Japanese healthy young males
[14] = multiple dose 100 mg, elderly Japanese
[15] = multiple dose 100 mg, elderly male and female
[16] = multiple dose 100 mg, healthy young males

Structure (SMILES): O=C(Nc1ccc(C[C@@H]2CC[C@H]([C@H](O)c3ccccc3)N2)cc1)[C@@H]1CCc2nccc(=O)n21 [Vibegron, (6S)—N-[4-[[(2S,5R)-5-[(R)-hydroxy(phenyl)methyl]pyrrolidin-2-yl]methyl]phenyl]-4-oxo-7,8-dihydro-6H-pyrrolo[1,2-a]pyrimidine-6-carboxamide]
- effect of tolterodine ER 4 mg on the pharmacokinetics of vibegron ([1]; in vivo): no effect
- Cmax of vibegron, geometric mean ([1]; vibegron 100 mg single dose + diltiazem ER 240 mg QD): 167 ng/mL
- GM AUC0-inf increase [1, 4]: 63%
- GM Cmax increase [1, 4]: 68%
- GM t1/2 ([1]; vibegron with diltiazem): 75.4 h
- delay in Tmax vs fasted [2, 5]: ~1 h
- reduction in AUC0-inf vs fasted [2, 5]: 46%
- reduction in Cmax vs fasted [2, 5]: 67%
- reduction in AUC0-inf vs fasted [2, 6]: 37%
- reduction in Cmax vs fasted [2, 6]: 52%
- reduction in mean AUC0-24 hr vs fasted [2, 7]: 20%
- reduction in mean Cmax vs fasted [2, 7]: 47%
- mean AUC0-24 with food compared to fasted state ([2]; Day 1): ~42%
- mean Cmax with food compared to fasted state ([2]; Day 1): 59%
- mean AUC0-24 with food compared to fasted state ([2]; Day 14): ~20%
- mean Cmax with food compared to fasted state ([2]; Day 14): 43%
- AUC0-24 [2, 8]: 3180 ± 925 ng·h/mL
- Cmax [2, 8]: 346 ± 139 ng/mL
- Ctrough [2, 8]: 62.7 ± 12.4 ng/mL
- Maximum MA4 HR difference from placebo (90% CI) (healthy subjects; 25 mg once daily): −1.60 (−7.09, 3.88) bpm
- Maximum MA4 HR, LS mean (90% CI) (healthy subjects; 25 mg once daily): 1.47 (−3.24, 6.17) bpm
- Maximum MA4 HR difference from placebo (90% CI) (healthy subjects; 50 mg once daily): −1.57 (−6.70, 3.56) bpm
- Maximum MA4 HR, LS mean (90% CI) (healthy subjects; 50 mg once daily): 1.50 (−2.79, 5.79) bpm
- Maximum MA4 HR, LS mean (90% CI) (healthy subjects; 100 mg once daily): 3.28 (−1.02, 7.57) bpm
- Maximum MA4 HR difference from placebo (90% CI) (healthy subjects; 150 mg once daily): 0.10 (−5.04, 5.23) bpm
- Maximum MA4 HR, LS mean (90% CI) (healthy subjects; 150 mg once daily): 3.17 (−1.13, 7.46) bpm
- Maximum MA4 HR difference from placebo (90% CI) (healthy subjects; 200 mg once daily): 2.60 (−2.89, 8.08) bpm
- Maximum MA4 HR, LS mean (90% CI) (healthy subjects; 200 mg once daily): 5.67 (0.96, 10.37) bpm
- Maximum MA4 HR difference from placebo (90% CI) (healthy subjects; 300 mg once daily): 5.98 (0.85, 11.12) bpm
- Maximum MA4 HR, LS mean (90% CI) (healthy subjects; 300 mg once daily): 9.06 (4.76, 13.35) bpm
- Maximum MA4 HR difference from placebo (90% CI) (healthy subjects; 400 mg once daily): 7.26 (2.13, 12.39) bpm
- Maximum MA4 HR, LS mean (90% CI) (healthy subjects; 400 mg once daily): 10.33 (6.04, 14.63) bpm
- steady state Cmax, elderly compared to young males ([3]; 100 mg QD): ~1.3 fold
- fe0-24 hr,ss ([3]; 100 mg, elderly subjects): ~17%
- fe0-24 hr,ss ([3]; 100 and 150 mg, young males): ~14%
- steady state AUC higher in middle-aged females vs middle-aged males ([3]; 100 or 150 mg): ~1.5 fold
- steady state exposure (AUC0-24) higher in elderly Japanese vs elderly non-Japanese ([3]; Day 14): 35%
- steady state AUC0-24 hr [3, 9]: 2620 ng·h/mL
- steady state Cmax [3, 9]: 278 ng/mL
- renal clearance (CLR) at steady state ([3]; elderly subjects (male and female)): 127 mL/min
- AUC0-24 ([3]; human, plasma, oral, multiple dose 150 mg, middle-aged female, read-out: AUC0-24): 3180 ± 925 ng·h/mL
- steady state exposures higher in Japanese vs non-Japanese young males ([3]; multiple dose): ~30%
- AUC0-24 [3, 10]: 164 ± 25.9 ng·h/mL
- Cmax [3, 10]: 15.6 ± 6.93 ng/mL
- t1/2 (harmonic mean ± pseudo SD) [3, 10]: 94.0 ± 9.60 h
- AUC0-24 [3, 11]: 613 ± 296 ng·h/mL
- Cmax [3, 11]: 56.9 ± 34.2 ng/mL
- t1/2 (harmonic mean ± pseudo SD) [3, 11]: 69.4 ± 6.6 h
- AUC0-24 [3, 12]: 507 ± 176 ng·h/mL
- Cmax [3, 12]: 41.5 ± 12.3 ng/mL
- Ctrough [3, 12]: 15.2 ± 5.07 ng/mL
- t1/2 (harmonic mean ± pseudo SD) [3, 12]: 77.2 ± 8.9 h
- AUC0-24 [3, 13]: 1710 ± 542 ng·h/mL
- t1/2 (harmonic mean ± pseudo SD) [3, 13]: 56.8 ± 19.2 h
- AUC0-24 [3, 14]: 2920 ± 693 ng·h/mL
- t1/2 (harmonic mean ± pseudo SD) [3, 14]: 75.1 ± 3.9 h
- AUC0-24 [3, 15]: 2230 ± 671 ng·h/mL
- Cmax [3, 15]: 224 ± 92.0 ng/mL
- Ctrough [3, 15]: 54.2 ± 15.3 ng/mL
- t1/2 (harmonic mean ± pseudo SD) [3, 15]: 88.4 ± 10.7 h
- AUC0-24 [3, 16]: 1280 ± 529 ng·h/mL
- Cmax [3, 16]: 169 ± 80.9 ng/mL
- Ctrough [3, 16]: 31.9 ± 11.5 ng/mL
- t1/2 (harmonic mean ± pseudo SD) [3, 16]: 79.7 ± 11.5 h
- AUC0-24 ([3]; multiple dose 150 mg, healthy young males): 2285 ± 1140 ng·h/mL

From patent US20230218624A1 (Urovant Sciences GmbH, priority 2017, published 2023)
